From patent US9133195B2, “Quaternary ammonium salt compounds of spirocyclopiperazines, preparation methods and uses thereof” (Peking University, priority 2006, dated 2015)
Read-outs that look alike come from different tables or passages of the source.

Key:
[1] = test system: Kunming mice; assay: Acetic acid-induced writhing test; type: in vivo; conditions: 0.5 h after s.c. administration
[2] = Body temperature in mice; type: in vivo; conditions: for Rectal temperature: before treatment
Procedure: (§1) All the following tests were carried out by using compound LXM-10 according to the routine methods.

[3] = test system: ICR mice; assay: Formalin test; type: in vivo; conditions: 0.5 h after s.c., dose not stated
Procedure: Sixty ICR mice, male and female in half, were divided into six groups with 10 mice in each group. The following groups were established: the normal saline (NS) control group, in which normal saline was administered by s.c.; the aspirin control group, in which aspirin was administered by i.g. at the dose of 300 mg/kg; the morphine control, group, in which morphine was administered (s.c.) at the dose of 10.0 mg/kg; and compound LXM-10 groups, in which compound LXM-10 were administered (s.c.) at the dose of 0.75, 1.5, 3.0 and 6.0 mg/kg. All drugs were dissolved in normal saline before use. The drugs injected at the dose of 0.1 ml/10 g. 30 min after administration, animals were administered 20 ul of 2.5% formalin solution on the right front paws. The licking times were recorded immediately in the duration of 0˜5 minutes as phase I reaction; After 20 minutes, the licking times were recorded in the duration of 20˜25 minutes as phase II reaction. The percentage of pain inhibition (%) was determined by using the following formula (5): Pain inhibition %=[(The licking time of normal saline control group−the licking time of drug injection group)/the licking time of normal saline control group]×100% (5) 2. Experimental Results

[4] = test system: mice; assay: Hot-plate test; type: in vivo; conditions: for pain threshold elevated rate (PTE %): at 2.0 h, 55° C. hot-plate; for ED50: Mus musculus, sc
Procedure: The temperature of the hot-plate was adjusted to 55° C. With licking hind paws and jumping as observation index, the time from placing of the animal on the hot plate to observation the above reactions was recorded as latency time, Latency time was measured for three times and calculated their mean value as Basal threshold or Baseline latency (BL), Mice with latency time of less than 5 s or more than 10 s were eliminated from the study. The remaining mice were divided into 8 groups, and 10 mice in each group. The following groups were established: the normal saline control group (NS), in which normal saline was administered (s.c.); the morphine control group (Mor), in which morphine was administered (s.c.) at the dose of 10.0 mg/kg; and compound LXM-10 groups, in which compound LXM-10 were administered (s.c.) at the dose of 0.75, 1.5, 3.0, 6.0, 12.0 and 24.0 mg/kg. All drugs were dissolved in normal saline before use. The drugs injected at the dose of 0.1 ml/10 g. The latency times were measured at 1.0, 1.5, 2.0, and 3.0 h after administering LXM-10. The cut-off time was set at 30 s to avoid skin scald. The percentage of pain threshold elevated rate (PTE %) was determined by using the following formula (2): PTE %=(The latency time of drug injection group−the latency time of control group at the corresponding time point)/the latency time of control group at the corresponding time point×100% (2)
To judge whether LXM-10 was effective as analgesic using this criterion: at the peak time point of this compound, the latency times of each compound LXM-10 group was greater than the mean latency time of normal saline control group at the corresponding time point plus three times of standard deviation. The effective percentage of each group was calculated made data conversion, then calculated the analgesic ED50 and 95% confidence interval (CI) in accordance with the formulae (3) and (4) using General Method for Calculating.
Wherein, Xm represents the logarithm value of the largest dose, i refers to group interval, ΣP refers to the sum of each group's efficiency, ΣP^2 represents the square sum of each group's efficiency, n refers to numbers of experimental groups.

[5] = Acute toxicity test; conditions: in vivo, sc
Procedure: as §1

[6] = test system: mice; assay: Addiction test (tail-erected response); type: in vivo; conditions: doses of 6.0, 12.0, 24.0 or 445.0 mg/kg
Procedure: as §1
They are quiet and normal.

[7] = test system: mice; assay: Spontaneous motion in mice; type: in vivo; conditions: for Numbers of movement: before treatment
Procedure: as §1

[8] = test system: mice; assay: Function of motion coordination (rota-rod); type: in vivo; conditions: for Time of falling down from rota-rod: before treatment
Procedure: as §1
The effect of muscle-relaxed effect on the analgesic effect of LXM-10 was also excluded.

[9] = test system: Kunming mice; assay: Acetic acid-induced writhing test; type: in vivo; conditions: Mus musculus, sc; 31.0 umol/kg s.c.; acetic acid i.p. after 30 min; writhing counted for 10 min
Procedure: Kunming mice, male and female in half, were randomly divided into groups with 8 mice in each group. The following groups were established: the normal saline (NS) control group, in which normal saline was administered by subcutaneous injection (s.c.); the test groups, in which 31.0 umol/kg quaternary ammonium salts compounds of piperazines of the present invention was administered by s.c. All drugs were dissolved in normal saline before use. The drug was injected at the dose of 0.1 ml/10 g. After 30 min, 0.2 ml of 0.6% acetic acid was injected intraperitoneally for each mouse. After 2˜3 min, the writhing reactions such as abdominal constriction, stretch of body and hind limbs, and hip raise occurred. Five minutes after acetic acid injection, the numbers of writhing was counted for 10 min. The percentage of inhibition was determined by using the following formula (1): Inhibition %=[(The numbers of writhing of control group−the numbers of writhing of drag injection group)/the numbers of writhing of control group]×100% (1) 2 Experimental Results
This experiment was carried out according to that of Example 36.

CC1C[N+]2(CCN(CCc3ccccc3)CC2)CC(C)O1 (stereo not drawn) [LXM-10, 2,4-dimethyl-9-β-phenylethyl-3-oxo-6,9-diazaspiro[5.5]undecane chloride]
percentage of pain inhibition ([1]; 1.5 mg/kg): 63.4%
percentage of pain inhibition ([1]; 3.0 mg/kg): 78.8%
percentage of pain inhibition ([1]; 6.0 mg/kg): 79.2%
percentage of pain inhibition ([1]; 12.0 mg/kg): 55.6%
Rectal temperature after treatment ([2]; 6.0 mg/kg, 0.5 h): 37.3 ± 0.35 °C
Rectal temperature after treatment ([2]; 6.0 mg/kg, 2.0 h): 37.3 ± 0.28 °C
Rectal temperature after treatment ([2]; 6.0 mg/kg, 3.5 h): 37.5 ± 0.29 °C
Rectal temperature ([2]; 6.0 mg/kg): 37.7 ± 0.34 °C
Rectal temperature after treatment ([2]; 12.0 mg/kg, 0.5 h): 37.0 ± 0.26 °C
Rectal temperature after treatment ([2]; 12.0 mg/kg, 2.0 h): 37.1 ± 0.24 °C
Rectal temperature after treatment ([2]; 12.0 mg/kg, 3.5 h): 37.1 ± 0.20 °C
Rectal temperature ([2]; 12.0 mg/kg): 37.1 ± 0.09 °C
Rectal temperature after treatment ([2]; 24.0 mg/kg, 0.5 h): 37.5 ± 0.21 °C
Rectal temperature after treatment ([2]; 24.0 mg/kg, 2.0 h): 37.0 ± 0.19 °C
Rectal temperature after treatment ([2]; 24.0 mg/kg, 3.5 h): 37.3 ± 0.16 °C
Rectal temperature ([2]; 24.0 mg/kg): 37.0 ± 0.18 °C
effect on body temperature ([2]; 6.0, 12.0, 24.0 mg/kg): did not affect
percentage of pain inhibition, Phase II ([3]; first of three values): 67.0%
percentage of pain inhibition, Phase II ([3]; second of three values): 69.6%
percentage of pain inhibition, Phase II ([3]; third of three values): 50.0%
pain threshold elevated rate (PTE %) ([4]; 1.5 mg/kg s.c.): 47.5%
pain threshold elevated rate (PTE %) ([4]; 3.0 mg/kg s.c.): 54.8%
pain threshold elevated rate (PTE %) ([4]; 6.0 mg/kg s.c.): 79.2%
pain threshold elevated rate (PTE %) ([4]; 12.0 mg/kg s.c.): 126.8%
ED50 ([4]; hot-plate, at peak time, read-out: analgesic ED50): 3.2 mg/kg
ED50 ([4]; hot-plate, read-out: ED50 95% confidence interval): 1.8 to 5.4 mg/kg
analgesic effect persisted to ([4]; s.c., hot-plate): 3.0 h
onset time of analgesic effect ([4]; s.c., hot-plate): 1.0 h
peak time of analgesic effect ([4]; s.c., hot-plate): 2.0 h
LD50 ([5]; read-out: LD50): 514 mg/kg
LD50 ([5]; read-out: LD50 95% confidence interval): 495 to 531 mg/kg
tail-erected response [6]: no tail-erected response
Numbers of movement after treatment ([7]; 6.0 mg/kg, 0.5 h): 46.6 ± 2.63
Numbers of movement after treatment ([7]; 6.0 mg/kg, 2.0 h): 42.3 ± 3.38
Numbers of movement after treatment ([7]; 6.0 mg/kg, 3.5 h): 48.0 ± 5.00
Numbers of movement ([7]; 6.0 mg/kg): 46.8 ± 1.96
Numbers of movement after treatment ([7]; 12.0 mg/kg, 0.5 h): 48.0 ± 6.21
Numbers of movement after treatment ([7]; 12.0 mg/kg, 2.0 h): 48.1 ± 6.14
Numbers of movement after treatment ([7]; 12.0 mg/kg, 3.5 h): 48.0 ± 7.85
Numbers of movement ([7]; 12.0 mg/kg): 47.7 ± 2.55
Numbers of movement after treatment ([7]; 24.0 mg/kg, 0.5 h): 43.5 ± 4.21
Numbers of movement after treatment ([7]; 24.0 mg/kg, 2.0 h): 45.5 ± 6.05
Numbers of movement after treatment ([7]; 24.0 mg/kg, 3.5 h): 46.6 ± 3.69
Numbers of movement ([7]; 24.0 mg/kg): 50.2 ± 2.31
effect on spontaneous motion ([7]; 6.0, 12.0, 24.0 mg/kg): did not significantly affect
Time of falling down from rota-rod after treatment ([8]; 6.0 mg/kg, 0.5 h): 106.5 ± 8.88 s
Time of falling down from rota-rod after treatment ([8]; 6.0 mg/kg, 2.0 h): 110.0 ± 5.17 s
Time of falling down from rota-rod after treatment ([8]; 6.0 mg/kg, 3.5 h): 116.2 ± 3.75 s
Time of falling down from rota-rod ([8]; 6.0 mg/kg): 96.7 ± 9.17 s
Time of falling down from rota-rod after treatment ([8]; 12.0 mg/kg, 0.5 h): 109.6 ± 10.3 s
Time of falling down from rota-rod after treatment ([8]; 12.0 mg/kg, 2.0 h): 109.3 ± 8.15 s
Time of falling down from rota-rod after treatment ([8]; 12.0 mg/kg, 3.5 h): 119.6 ± 0.38 s
Time of falling down from rota-rod ([8]; 12.0 mg/kg): 96.6 ± 8.93 s
Time of falling down from rota-rod after treatment ([8]; 24.0 mg/kg, 0.5 h): 112.7 ± 5.18 s
Time of falling down from rota-rod after treatment ([8]; 24.0 mg/kg, 2.0 h): 117.5 ± 2.50 s
Time of falling down from rota-rod after treatment ([8]; 24.0 mg/kg, 3.5 h): 119.0 ± 1.00 s
Time of falling down from rota-rod ([8]; 24.0 mg/kg): 101.2 ± 9.15 s
effect on function of motion coordination ([8]; 6.0, 12.0, 24.0 mg/kg): did not significantly affect
inhibition in vivo at 31 µmol/kg [9]: 65%
